For data set [1], the system named is nicotine-induced antinociception. Kind of data set: Blockade of nicotine-induced antinociception, tail-flick test. The class given is in vivo, mice. Conditions: for AD50 Tail-Flick: blocking antinociception of nicotine 2.5 mg/kg, mice, systemic administration. On the procedure:
Anitinociception. The tail-flick method of D'Amour and Smith (1941) as modified by Dewey et al. (1970) was used. A control response (2-4 s) was determined for each animal before treatment, and a test latency was determined after drug administration. To minimize tissue damage, a maximum latency of 10 s was imposed. Antinociceptive response was calculated as percent maximum possible effect (% MPE), where % MPE=[((test-control)/(10-control))×100], Groups of 8 to 12 animals were used for each dose and for each treatment. Mice were tested 5 min after nicotine administration for the dose-response evaluation. Antagonism studies were carried out by pretreating the mice s.c. with either saline or various drugs at different times before nicotine. The animals were tested 5 min after administration of nicotine.
(§1) Data were analyzed statistically by an analysis of variance followed by the Fisher's P least-significant difference multiple comparison test. The null hypothesis was rejected at the […].
In general terms: In hot-plate and tail-flick tests a longer latency is read as antinociception.

For data set [2], the system named is discriminative stimulus effect of nicotine. Put plainly: Nicotine drug discrimination. It counts as in vivo. Conditions: rats.
Protocol: Rats were individually housed in a temperature-controlled environment and were maintained on a diet (Agway Rodent Chow) that restricted their body weight to approximately 85% of their free feeding weight. Water was available ad libitum in the home cages. A two-lever operant drug nation paradigm (VI 15) was carried out in eight operant chambers (4 Lafayette model 80001 and 4 BRS/LVIE model s 002). Reinforcement was a Bioserv 45-mg precision dustless pellet. Data were collected automatically by two Commodore 64 microcomputers.
Rats were placed in an operant chamber 5 min after injections. […] Animals were required to meet a criterion of three successive days of 80% or greater correct-lever responding before testing was initiated. Injections were given 5 min before placing the animal in the operant chamber. The schedule of injections, was determined using a Latin Square design. Dose-response curves were determined for nicotine 5 min after s.c. injections.
Data set [3] has as its system nicotine-induced seizures. Put plainly: Nicotine-induced seizure activity. The class given is in vivo, mice. How it is done:
Seizure Activity. Following s.c. injection of nicotine at a dose of 9 mg/kg, each animal was placed in a 30 cm×30 cm Plexiglass cage and observed for 5 min. […] This amount of time was chosen because seizures occur very quickly after nicotine administration. Results are expressed as percentage seizure.

Data set [4] deals with nicotine-induced motor impairment. Kind of data set: Blockade of nicotine-induced motor impairment, rotarod test. Conditions: without nicotine. It counts as in vivo, mice. On the procedure:
Motor Coordination. To measure motor coordination, a wooden rod 6 cm in diameter was partitioned into three compartments by circular metal discs (28 cm in diameter) at 18-cm intervals. The rod was attached to a motor and rotated at a rate of 4 rpm. Naive mice were trained until they could remain on the rotarod for 3 min. […] This training took place no longer than 15 min before the s.c. administration of nicotine. Twenty minutes after the injection, mice were placed on the rotarod for 5 min. The amount of time the animals remained on the rotarod was recorded and percent impairment was calculated as % Impairment=[(]-(test time in s/300))×100]. An impairment value of 0% corresponds to the subjects that remained on the rotarod for 5 min (300 s), whereas 100% impairment corresponds to subjects, that fell off the rotarod immediately.
as §1
(The rotarod test checks motor coordination on a turning rod.)

In data set [5] the test system is nicotine-induced hypothermia. Kind of data set: Blockade of nicotine-induced hypothermia (body temperature). The class given is in vivo, mice. On the procedure: Body Temperature. Rectal temperature was measured by a thermistor probe (inserted 24 mm) and digital thermometer (Yellow Springs Instrument Co., Yellow Springs, Ohio). Readings were taken just before and at 30 min after the s.c. injection of nicotine. For antagonism studies, mice were pretreated with either saline or various drugs 10 min before nicotine. The difference in rectal temperature before and after treatment was calculated for each mouse. The ambient temperature of the laboratory varied from 21 to 24° C. from day to day.
as §1

Data set [6] deals with cocaine-induced hyperactivity. Put plainly: Locomotor activity, cocaine-induced hyperactivity. The class given is in vivo, mice. Conditions: doses higher than 1 mg/kg. How it is done: Locomotor Activity. […] Interruptions of the photocell beams (two banks of eight cells each) were then recorded for the next 30 min. Data were expressed as number of photocell interruptions.

A further data set has as its target T1, Dopamine transporter (Rattus norvegicus, UniProt P23977).
T1 construct: from tissue; host or cells: brain
Conditions: brain; read-out: Dopamine [3H]WIN 35,428 IC50; cited from earlier work.

The target in the next data set is T2, Serotonin transporter (Rattus norvegicus, UniProt P31652).
T2 construct: from tissue; host or cells: brain
T2 sequence (P31652 whole entry): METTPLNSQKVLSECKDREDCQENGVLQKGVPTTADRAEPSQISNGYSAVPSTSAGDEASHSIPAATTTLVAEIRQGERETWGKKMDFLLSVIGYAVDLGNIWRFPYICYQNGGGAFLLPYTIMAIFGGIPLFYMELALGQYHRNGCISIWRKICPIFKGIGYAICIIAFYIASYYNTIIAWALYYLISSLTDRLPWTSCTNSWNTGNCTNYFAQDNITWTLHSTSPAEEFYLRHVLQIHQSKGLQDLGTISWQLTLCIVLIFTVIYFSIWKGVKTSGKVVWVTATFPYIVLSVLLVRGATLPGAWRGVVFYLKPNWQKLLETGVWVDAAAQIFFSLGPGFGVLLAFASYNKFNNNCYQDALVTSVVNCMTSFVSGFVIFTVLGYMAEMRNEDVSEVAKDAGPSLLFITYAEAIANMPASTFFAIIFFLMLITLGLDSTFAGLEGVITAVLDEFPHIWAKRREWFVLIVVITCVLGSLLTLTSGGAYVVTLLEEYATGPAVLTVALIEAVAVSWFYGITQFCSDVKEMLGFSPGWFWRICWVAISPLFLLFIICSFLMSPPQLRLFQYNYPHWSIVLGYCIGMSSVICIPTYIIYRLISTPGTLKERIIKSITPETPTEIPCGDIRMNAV
Conditions: brain; read-out: Serotonin [3H]Paroxetine IC50; cited from earlier work.

Data set [7] concerns the target T3, Norepinephrine transporter (Rattus norvegicus, UniProt Q63380).
T3 construct: from tissue; host or cells: brain
Conditions: brain; read-out: Norepinephrine [3H]Nisoxetime IC50; cited from earlier work.

Each structure is given as a SMILES string. Marks after values point to notes of the source that are not given here.

The term ED50 denotes the midpoint of the dose-response relation. One may read the IC50 as the concentration that gives 50% inhibition.

T1 sequence (P23977 whole entry): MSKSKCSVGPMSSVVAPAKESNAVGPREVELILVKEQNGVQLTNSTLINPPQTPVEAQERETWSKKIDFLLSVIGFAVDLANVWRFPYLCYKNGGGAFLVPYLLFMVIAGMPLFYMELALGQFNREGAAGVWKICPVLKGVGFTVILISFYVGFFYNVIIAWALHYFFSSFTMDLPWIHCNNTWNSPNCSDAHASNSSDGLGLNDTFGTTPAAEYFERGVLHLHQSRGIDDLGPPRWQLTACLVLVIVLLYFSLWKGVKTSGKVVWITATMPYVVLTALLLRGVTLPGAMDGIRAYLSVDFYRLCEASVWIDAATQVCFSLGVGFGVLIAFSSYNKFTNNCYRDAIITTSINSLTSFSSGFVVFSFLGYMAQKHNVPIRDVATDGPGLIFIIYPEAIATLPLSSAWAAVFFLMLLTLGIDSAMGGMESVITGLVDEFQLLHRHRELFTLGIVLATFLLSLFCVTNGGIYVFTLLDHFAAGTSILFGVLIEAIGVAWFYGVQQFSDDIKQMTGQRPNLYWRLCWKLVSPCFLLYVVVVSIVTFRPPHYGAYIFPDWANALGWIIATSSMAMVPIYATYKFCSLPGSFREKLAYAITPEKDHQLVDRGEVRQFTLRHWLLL
T3 sequence (Q63380 1-617): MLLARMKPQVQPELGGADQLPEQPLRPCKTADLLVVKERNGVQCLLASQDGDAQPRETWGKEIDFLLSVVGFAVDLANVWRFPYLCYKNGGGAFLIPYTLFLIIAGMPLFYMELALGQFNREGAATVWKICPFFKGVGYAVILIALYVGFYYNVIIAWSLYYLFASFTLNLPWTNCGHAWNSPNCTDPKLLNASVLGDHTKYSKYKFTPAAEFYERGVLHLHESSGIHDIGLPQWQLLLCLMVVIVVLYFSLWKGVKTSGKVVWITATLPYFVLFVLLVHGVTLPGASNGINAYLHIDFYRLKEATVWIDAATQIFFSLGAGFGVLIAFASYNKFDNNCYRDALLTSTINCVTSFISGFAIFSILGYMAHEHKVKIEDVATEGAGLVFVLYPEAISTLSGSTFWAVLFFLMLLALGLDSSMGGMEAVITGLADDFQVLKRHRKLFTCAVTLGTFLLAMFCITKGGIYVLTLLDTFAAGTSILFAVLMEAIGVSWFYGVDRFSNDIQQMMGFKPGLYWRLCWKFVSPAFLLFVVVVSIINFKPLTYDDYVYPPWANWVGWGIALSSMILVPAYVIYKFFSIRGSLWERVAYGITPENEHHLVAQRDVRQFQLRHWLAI

Turning to `CN1CCCC1c1cccnc1` (single isomer, unassigned; (-)) [Nicotine, (−)-Nicotine, reference compound], in data set [1] (Mus musculus, read-out: ED50 value of nicotine, antinociception), the ED50 was 1.5 mg/kg. The “Drug discrimination % Test (Mean ± SE)” value in data set [2] (saline pretreatment, nicotine 0.4 mg/kg) stood at 87 ± 8%. Besides, in data set [3] (saline pretreatment, nicotine 9 mg/kg challenge), the “% Seizures (Mean)” value is reported as 100%.
As for `COC(=O)[C@H]1[C@@H](OC(=O)c2ccccc2)C[C@@H]2CC[C@H]1N2C` [Cocaine], the “AD50 Tail-Flick” value in [1] is listed as 3.2 μmol/hg. The “Drug discrimination % Test (Mean ± SE)” value is recorded as 69 ± 8% in data set [2] (cocaine 10 mg/kg pretreatment, nicotine 0.4 mg/kg) and 17 ± 7% in [2] (saline pretreatment, cocaine 10 mg/kg). In addition, in data set [4], the “Performance on the rotarod test, by itself” value is recorded as “did not significantly alter performance”. Moreover, the “Hypothermia, % blockade @ dose” value in data set [5] (@ 32 μmol/hg) is 20% @ 32. The “% Seizures (Mean)” value in data set [3] (cocaine 10 mg/kg pretreatment, nicotine 9 mg/kg) was 83.3%; in data set [3] (cocaine 20 mg/kg pretreatment, nicotine 9 mg/kg, P < .05 from saline/nicotine), 50^c %; in data set [3] (cocaine 30 mg/kg pretreatment, nicotine 9 mg/kg, P < .05 from saline/nicotine), 16^c %; in [3] (saline pretreatment, cocaine 20 mg/kg challenge) it was 0%. Also, in data set [3] (mice, estimated), the “AD50, antagonism of nicotine-induced seizures” value is 50 µmol/kg.
`CO[C@H]1CC=C2CCN3CCC4=C(CC(=O)OC4)[C@]23C1` [DHβE, Dihydro-β-erythroidine]: the “Effect of higher doses on mouse spontaneous activity” value in [6] is “significantly decreased mouse spontaneous activity”.
As to `CC(C)OC(=O)[C@@H]1C2CC[C@H](C[C@@H]1c1ccc(Cl)cc1)N2C` [RTI-114], in data set [1], the “AD50 Tail-Flick” value stood at 5.3 μmol/hg. Also, the values for the IC50 (on Dopamine transporter; on Serotonin transporter; in data set [7]) were 1.4 nM, 1400 nM and 778 nM, respectively. Also, the “AD50 Hypothermia” value in data set [5] (blocking nicotine-induced hypothermia, mice, systemic administration) worked out at 9 μmol/hg.
In the case of `CNC1(C)C2CCC(C2)C1(C)C` (centres unmarked) [mecamylamine], in data set [6], the “Effect of higher doses on mouse spontaneous activity” value is listed as “significantly decreased mouse spontaneous activity”.
